Data set [1] deals with OVCAR-3. The following applies: day 300, OVCAR-3-bearing SCID mice; cited from earlier work.
The nature of data set [2]: Solubility in Miglyol 812. Type of data set: physicochemical. The conditions noted are these: Miglyol 812, oil or lipid.

≈ marks a conversion by molar mass, not a printed value.

On to `CCCCCCCCCCCCCCC(Br)C(=O)O[C@@H](C(=O)O[C@H]1C[C@@]2(O)[C@@H](OC(=O)c3ccccc3)[C@@H]3[C@]4(OC(C)=O)CO[C@@H]4C[C@H](O)[C@@]3(C)C(=O)[C@H](O)C(=C1C)C2(C)C)[C@@H](NC(=O)OC(C)(C)C)c1ccccc1` (some centres unmarked) [2′-(2-bromo)-hexadecanoyl DX], for which the Survival in data set [1] is on record as 100%.

`CC(=O)O[C@@]12CO[C@@H]1C[C@H](O)[C@@]1(C)C(=O)[C@H](O)C3=C(C)[C@@H](OC(=O)[C@H](O)[C@@H](NC(=O)OC(C)(C)C)c4ccccc4)C[C@@](O)([C@@H](OC(=O)c4ccccc4)[C@H]21)C3(C)C` [DX, Docetaxel] returned a solubility in data set [2] of 36.11 ± 0.1 mg/mL (≈ 44.7 mM).

Values taken from PMC3205148 (International Journal of Nanomedicine, 2011).
